The values below are quoted from earlier work in patent US11878910B2, “Ph-based structural change of water soluble carbon nanoparticles for encapsulation and release of therapeutic agents in biological systems” (SINON THERAPEUTICS INC., priority 2015, dated 2024).

Structures are written as SMILES.

On to `C1=Cc2nc1c(-c1ccccc1)c1nc(c(-c3ccccc3)c3ccc([nH]3)c(-c3ccccc3)c3ccc([nH]3)c2-c2ccccc2)C=C1` [TPP, tetraphenylporphyrin], for which the solubility in water result is on record as “insoluble”.
